In patent US20080267942A1, “BENZAZEPIN-2(1H)-ONE DERIVATIVES” (Pfizer Limited, priority 2006, published 2008):
Structures can show the parent of a compound that is named as a salt.

How the values were obtained:
[1] = target: T1, bovine beta-2 adrenoceptor (Bos taurus, UniProt Q28044); assay: cAMP assay in CHO cells transfected with the bovine beta-2 adrenoceptor (DiscoveRx Hit Hunter cAMP II); format: cell-based; details: CHO cells transfected with bovine beta-2 adrenoceptor, 30 minutes incubation with compound
T1 construct: expressed in transfected cells; host or cells: CHO cells
Protocol: (§1) CHO cells transfected with the bovine or porcine beta-2 adrenceptors were maintained in culture in DMEM/HAMS F12+10% FBS+2 mM glutamine+500 μg/ml geneticin (for the porcine receptor the medium was supplement with 1.5 mM HEPES) at 37° C. with a 5% CO2 atmosphere.
(§2) Cells were plated into 96 well viewplates in medium and incubated overnight at 37° C. with a 5% CO2 atmosphere. The cells were pre-incubated with 0.5 mM IBMX in PBS for 30 minutes prior to incubation with increasing concentrations of experimental compound (5×10^−12 to 10^−5M) for 30 minutes at 37° C. with a 5% CO2 atmosphere. At the end of the incubation time the compound was removed and the cells assayed for cAMP using the DiscoveRx Hit Hunter cAMP II™ assay kit.
(§3) Duplicate samples were run for each experimental compound and the data generated was analysed using EC50 analysis software in Graphpad Prism.

[2] = target: T2, porcine beta-2 adrenoceptor (Sus scrofa, UniProt Q28997); assay: cAMP assay in CHO cells transfected with the porcine beta-2 adrenoceptor (DiscoveRx Hit Hunter cAMP II); format: cell-based; details: CHO cells transfected with porcine beta-2 adrenoceptor, 30 minutes incubation with compound
T2 construct: expressed in transfected cells; host or cells: CHO cells
Protocol: as §1, §2, §3

T1 sequence (Q28044 whole entry): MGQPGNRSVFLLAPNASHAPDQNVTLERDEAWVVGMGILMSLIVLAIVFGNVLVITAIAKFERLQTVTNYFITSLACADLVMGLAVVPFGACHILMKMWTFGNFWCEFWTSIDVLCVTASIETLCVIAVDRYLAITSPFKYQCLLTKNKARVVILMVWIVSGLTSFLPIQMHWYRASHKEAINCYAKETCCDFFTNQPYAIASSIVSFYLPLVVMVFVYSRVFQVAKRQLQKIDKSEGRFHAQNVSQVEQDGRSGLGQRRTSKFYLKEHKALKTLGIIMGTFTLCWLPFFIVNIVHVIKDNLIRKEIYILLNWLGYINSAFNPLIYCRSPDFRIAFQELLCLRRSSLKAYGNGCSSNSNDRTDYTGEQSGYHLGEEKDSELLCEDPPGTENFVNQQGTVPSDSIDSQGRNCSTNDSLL
T2 sequence (Q28997 whole entry): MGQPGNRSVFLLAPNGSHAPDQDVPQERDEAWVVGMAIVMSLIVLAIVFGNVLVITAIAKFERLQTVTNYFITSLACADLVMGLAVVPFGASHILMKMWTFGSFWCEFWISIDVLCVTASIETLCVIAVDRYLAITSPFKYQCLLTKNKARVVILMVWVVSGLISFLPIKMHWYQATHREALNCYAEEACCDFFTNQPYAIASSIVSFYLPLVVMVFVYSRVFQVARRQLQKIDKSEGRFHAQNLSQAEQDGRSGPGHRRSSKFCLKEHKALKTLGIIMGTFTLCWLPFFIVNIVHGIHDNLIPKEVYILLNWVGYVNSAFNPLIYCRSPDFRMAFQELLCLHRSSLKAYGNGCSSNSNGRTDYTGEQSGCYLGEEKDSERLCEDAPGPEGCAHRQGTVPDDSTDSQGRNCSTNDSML

Row | EC50 [1] [nM] | EC50 [2] [nM] | SMILES
1 | 0.5 | 1.4 | CC(CCc1cc(F)cc2cc[nH]c12)N[C@@H]1CCn2c(=O)[nH]c3cccc(c32)[C@H]1O (mixture of isomers) [Example 1a, 6-{[3-(5-Fluoro-1H-indol-7-yl)-1-methylpropyl]amino}-7-hydroxy-4,5,6,7-tetrahydroimidazo[4,5,1-jk][1]benzazepin-2(1H)-one]
2 | 0.7 | 1 | CC(CCc1cc(F)cc2cc[nH]c12)N[C@@H]1CCn2c(=O)[nH]c3cccc(c32)[C@H]1O (mixture of isomers) [Example 1b, 6-{[3-(5-Fluoro-1H-indol-7-yl)-1-methylpropyl]amino}-7-hydroxy-4,5,6,7-tetrahydroimidazo[4,5,1-jk][1]benzazepin-2(1H)-one]
3 | 171 | 31 | CC(CCc1ccc(C(=O)O)o1)N[C@@H]1CCn2c(=O)[nH]c3cccc(c32)[C@H]1O (mixture of isomers) [Example 2, 5-(3-{[7-Hydroxy-2-oxo-1,2,4,5,6,7-hexahydroimidazo[4,5,1-jk][1]benzazepin-6-yl]amino}butyl)-2-furoic acid]
4 | 5.5 | 3 | Cc1[nH]c2ccccc2c1CCC(C)N[C@@H]1CCn2c(=O)[nH]c3cccc(c32)[C@H]1O (mixture of isomers) [Example 3b, 7-Hydroxy-6-{[1-methyl-3-(2-methyl-1H-indol-3-yl)propyl]amino}-4,5,6,7-tetrahydroimidazo[4,5,1-jk][1]benzazepin-2(1H)-one]
5 | 103 | 143 | C[C@@H](CCc1c[nH]c2ccccc12)N[C@@H]1CCn2c(=O)[nH]c3cccc(c32)[C@H]1O (racemic) [Example 4c, 7-Hydroxy-6-{[3-(1H-indol-3-yl)-1-methylpropyl]amino}-4,5,6,7-tetrahydroimidazo[4,5,1-jk][1]benzazepin-2(1H)-one]
6 | 1.1 | 2.5 | CC(CCc1c[nH]c2ccc(F)cc12)N[C@@H]1CCn2c(=O)[nH]c3cccc(c32)[C@H]1O (mixture of isomers) [Example 5b, Hydrochloride salt of 6-{[3-[5-Fluoro-1H-indol-3-yl]-1-methylpropyl]amino}-7-hydroxy-4,5,6,7-tetrahydroimidazo[4,5,1-jk][1]benzazepin-2(1)-one]
7 | 4.6 | 5.5 | CC(CCc1cccc(=O)[nH]1)N[C@@H]1CCn2c(=O)[nH]c3cccc(c32)[C@H]1O (mixture of isomers) [Example 7a, 7-Hydroxy-6-{[1-methyl-3-(6-oxo-1,6-dihydropyridin-2-yl)propyl]amino}-4,5,6,7-tetrahydroimidazo[4,5,1-jk][1]benzazepin-2(1H)-one]
8 | 3.8 |  | CC(CCc1cccc(=O)[nH]1)N[C@@H]1CCn2c(=O)[nH]c3cccc(c32)[C@H]1O (mixture of isomers) [Example 7c, 7-Hydroxy-6-{[1-methyl-3-(6-oxo-1,6-dihydropyridin-2-yl)propyl]amino}-4,5,6,7-tetrahydroimidazo[4,5,1-jk][1]benzazepin-2(1H)-one]
9 | 114 | 6.1 | CC(CC(C)(C)c1c[nH]c2ccccc12)N[C@@H]1CCn2c(=O)[nH]c3cccc(c32)[C@H]1O (mixture of isomers) [Example 8, 7-Hydroxy-6-{[3-(1H-indol-3-yl)-1,3-dimethylbutyl]amino}-4,5,6,7-tetrahydroimidazo[4,5,1-jk][1]benzazepin-2(1H)-one]
10 | 8 | 5.8 | CC(CCc1cn(C)c2ccccc12)N[C@@H]1CCn2c(=O)[nH]c3cccc(c32)[C@H]1O (mixture of isomers) [Example 14b, 7-Hydroxy-6-{[1-methyl-3-(1-methyl-1H-indol-3-yl)propyl]amino}-4,5,6,7-tetrahydroimidazo[4,5,1-jk][1]benzazepin-2(1H)-one]
11 | 5.5 | 4.2 | CC(CCc1cn(C)c2ccccc12)N[C@@H]1CCn2c(=O)[nH]c3cccc(c32)[C@H]1O (mixture of isomers) [Example 14c, 7-Hydroxy-6-{[1-methyl-3-(1-methyl-1H-indol-3-yl)propyl]amino}-4,5,6,7-tetrahydroimidazo[4,5,1-jk][1]benzazepin-2(1H)-one]
12 | 25 | 33 | CC(CCc1c[nH]c2ccc(OCc3ccccc3)cc12)N[C@@H]1CCn2c(=O)[nH]c3cccc(c32)[C@H]1O (mixture of isomers) [Example 17, 6-({3-[5-(Benzyloxy)-1H-indol-3-yl]-1-methylpropyl}amino)-7-hydroxy-4,5,6,7-tetrahydroimidazo[4,5,1-jk][1]benzazepin-2(1H)-one]
13 | 218 | 98 | CC(CCc1cn(Cc2ccccc2)c2ccccc12)N[C@@H]1CCn2c(=O)[nH]c3cccc(c32)[C@H]1O (mixture of isomers) [Example 18, 6-{[3-(1-Benzyl-1H-indol-3-yl)-1-methylpropyl]amino}-7-hydroxy-4,5,6,7-tetrahydroimidazo[4,5,1-jk][1]benzazepin-2(1H)-one]
14 | 157 | 36 | CC(CC(C)(C)c1cn(C)c2ccccc12)N[C@@H]1CCn2c(=O)[nH]c3cccc(c32)[C@H]1O (mixture of isomers) [Example 20, 6-{[1,3-Dimethyl-3-(1-methyl-1H-indol-3-yl)butyl]amino}-7-hydroxy-4,5,6,7-tetrahydroimidazo[4,5,1-jk][1]benzazepin-2(1H)-one]
15 | 50 | 53 | COc1ccc2[nH]cc(CCC(C)N[C@@H]3CCn4c(=O)[nH]c5cccc(c54)[C@H]3O)c2c1 (mixture of isomers) [Example 22, 7-hydroxy-6-{[3-(5-methoxy-1H-indol-3-yl)-1-methylpropyl]amino}-4,5,6,7-tetrahydroimidazo[4,5,1-jk][1]benzazepin-2(1H)-one]
16 | 92 | 79 | CC(CCc1nccs1)N[C@@H]1CCn2c(=O)[nH]c3cccc(c32)[C@H]1O (mixture of isomers) [Example 24b, 7-Hydroxy-6-{[1-methyl-3-(1,3-thiazol-2-yl)propyl]amino}-4,5,6,7-tetrahydroimidazo[4,5,1-jk][1]benzazepin-2(1H)-one]

Row | EC50 [1] [nM] | EC50 [2] [nM] | SMILES
17 | 2.9 | 4.2 | CC(CCc1cnc(Cl)s1)N[C@@H]1CCn2c(=O)[nH]c3cccc(c32)[C@H]1O (mixture of isomers) [Example 25, 6-{[3-(2-Chloro-1,3-thiazol-5-yl)-1-methylpropyl]amino}-7-hydroxy-4,5,6,7-tetrahydroimidazo[4,5,1-jk][1]benzazepin-2(1H)-one]
18 | 345 | 742 | CC(CCc1cscn1)N[C@@H]1CCn2c(=O)[nH]c3cccc(c32)[C@H]1O (mixture of isomers) [Example 26, 7-Hydroxy-6-{[1-methyl-3-(1,3-thiazol-4-yl)propyl]amino}-4,5,6,7-tetrahydroimidazo[4,5,1-jk][1]benzazepin-2(1H)-one]
19 | 77 | 53 | CC(CCc1ccncc1)N[C@@H]1CCn2c(=O)[nH]c3cccc(c32)[C@H]1O (mixture of isomers) [Example 27, 7-Hydroxy-6-[(1-methyl-3-pyridin-4-ylpropyl)amino]-4,5,6,7-tetrahydroimidazo[4,5,1-jk][1]benzazepin-2(1H)-one]
20 | 129 | 104 | Cc1ncc(CCC(C)N[C@@H]2CCn3c(=O)[nH]c4cccc(c43)[C@H]2O)s1 (mixture of isomers) [Example 28a, 7-Hydroxy-6-{[1-methyl-3-(2-methyl-1,3-thiazol-5-yl)propyl]amino}-4,5,6,7-tetrahydroimidazo[4,5,1-jk][1]benzazepin-2(1H)-one]
21 |  | 0.4 | CC(CCn1cnc2cc(F)cc(F)c21)N[C@@H]1CCn2c(=O)[nH]c3cccc(c32)[C@H]1O (single isomer, unassigned) [Example 69]
22 |  | 3.3 | Cc1nnsc1CCC(C)N[C@@H]1CCn2c(=O)[nH]c3cccc(c32)[C@H]1O (single isomer, unassigned) [Example 70]
23 |  | 15.1 | CC(CCn1cnnc1)N[C@@H]1CCn2c(=O)[nH]c3cccc(c32)[C@H]1O (single isomer, unassigned) [Example 71]
24 |  | 2.7 | CC(CCc1cncnc1)N[C@@H]1CCn2c(=O)[nH]c3cccc(c32)[C@H]1O (single isomer, unassigned) [Example 72]
25 |  | 0.8 | COc1cncc(CCC(C)N[C@@H]2CCn3c(=O)[nH]c4cccc(c43)[C@H]2O)c1 (single isomer, unassigned) [Example 73]
26 |  | 4.7 | CC(CCc1cnc(O)s1)N[C@@H]1CCn2c(=O)[nH]c3cccc(c32)[C@H]1O (single isomer, unassigned) [Example 74]
27 |  | 4.7 | CC(CCn1nnc2ccccc21)N[C@@H]1CCn2c(=O)[nH]c3cccc(c32)[C@H]1O (single isomer, unassigned) [Example 75]
28 |  | 2 | CC(CCn1cnc2cnccc21)N[C@@H]1CCn2c(=O)[nH]c3cccc(c32)[C@H]1O (single isomer, unassigned) [Example 76]
29 |  | 2.8 | CC(CCn1cnc2ncccc21)N[C@@H]1CCn2c(=O)[nH]c3cccc(c32)[C@H]1O (single isomer, unassigned) [Example 77]
30 |  | 1.2 | Cc1nc2ccccc2n1CCC(C)N[C@@H]1CCn2c(=O)[nH]c3cccc(c32)[C@H]1O (single isomer, unassigned) [Example 78]
31 |  | 1 | CC(CCn1cnc2cc(F)c(F)cc21)N[C@@H]1CCn2c(=O)[nH]c3cccc(c32)[C@H]1O (single isomer, unassigned) [Example 79]

Row | SMILES | EC50 [1] [nM] | EC50 [2] [nM]
32 | CC(Cc1c[nH]c2ccccc12)N[C@@H]1CCn2c(=O)[nH]c3cccc(c32)[C@H]1O (stereo partly drawn) [Example 68, (6R,7R)-7-hydroxy-6-{[2-(1H-indol-3-yl)-1-methylethyl]amino}-4,5,6,7-tetrahydroimidazo[4,5,1-jk][1]benzazepin-2(1H)-one] |  | 4.9
